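1) Cells in 96-well plates. 2) Compound, 48 h, 5 concentrations. 3) Linear interpolation between surrounding doses. 4) Unreached endpoint = highest concentration. GI50 marks 50% less growth.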 Activity calls are given as the source filed them. Cut-off read from the data, not from the text of the source: active = GI50 up to about 1.1 µM and inactive = higher.
Experiments:
Assay in all cases: inhibition of tumour cell growth, NCI panel, 48 h
786-0 = test system: 786-0
A498 = test system: A498
A549 = test system: A549
ACHN = test system: ACHN
CAKI-1 = test system: CAKI-1
CCRF-CEM = test system: CCRF-CEM
COLO 205 = test system: COLO 205
DLD-1 = test system: DLD-1
DMS-114 = test system: DMS-114
DMS-273 = test system: DMS-273
EKVX = test system: EKVX
HCC 2998 = test system: HCC 2998
HCT-116 = test system: HCT-116
HCT-15 = test system: HCT-15
HL-60 = test system: HL-60
HOP-18 = test system: HOP-18
HOP-62 = test system: HOP-62
HOP-92 = test system: HOP-92
HT-29 = test system: HT-29
IGROV-1 = test system: IGROV-1
K562 = test system: K562
KM12 = test system: KM12
LXFL 529 = test system: LXFL 529
M14 = test system: M14
M19-MEL = test system: M19-MEL
Malme-3M = test system: Malme-3M
NCI-H226 = test system: NCI-H226
NCI-H23 = test system: NCI-H23
NCI-H460 = test system: NCI-H460
NCI-H522 = test system: NCI-H522
OVCAR-3 = test system: OVCAR-3
OVCAR-4 = test system: OVCAR-4
OVCAR-5 = test system: OVCAR-5
OVCAR-8 = test system: OVCAR-8
RXF 393 = test system: RXF 393
RXF 631 = test system: RXF 631
SF-268 = test system: SF-268
SF-295 = test system: SF-295
SF-539 = test system: SF-539
SK-MEL-28 = test system: SK-MEL-28
SK-MEL-2 = test system: SK-MEL-2
SK-OV-3 = test system: SK-OV-3
SN12C = test system: SN12C
SNB-19 = test system: SNB-19
SNB-75 = test system: SNB-75
SNB-78 = test system: SNB-78
SR = test system: SR
SW-620 = test system: SW-620
TK-10 = test system: TK-10
U-251 = test system: U-251
UACC-257 = test system: UACC-257
UACC-62 = test system: UACC-62
UO-31 = test system: UO-31
XF498 = test system: XF498
KM-20L2 = test system: KM-20L2
LOX IMVI = test system: LOX IMVI
MOLT-4 = test system: MOLT-4
RPMI-8226 = test system: RPMI-8226
SK-MEL-5 = test system: SK-MEL-5

SMILES: N/C(=N\O)N/N=C/c1cccs1
- GI50 (786-0): > 100 µM (inactive)
- GI50 (A498): > 100 µM (inactive)
- GI50 (A549): 23.9 µM (inactive)
- GI50 (ACHN): 42.3 µM (inactive)
- GI50 (CAKI-1): 34.4 µM (inactive)
- GI50 (CCRF-CEM): > 100 µM (inactive)
- GI50 (COLO 205): 55.7 µM (inactive)
- GI50 (DLD-1): 59.6 µM (inactive)
- GI50 (DMS-114): 54.8 µM (inactive)
- GI50 (DMS-273): > 100 µM (inactive)
- GI50 (EKVX): 23.7 µM (inactive)
- GI50 (HCC 2998): 33.4 µM (inactive)
- GI50 (HCT-116): > 100 µM (inactive)
- GI50 (HCT-15): 79.1 µM
- GI50 (HL-60): 28.1 µM (inactive)
- GI50 (HOP-18): 53.8 µM (inactive)
- GI50 (HOP-62): 24.7 µM (inactive)
- GI50 (HOP-92): > 100 µM (inactive)
- GI50 (HT-29): 45.1 µM (inactive)
- GI50 (IGROV-1): 35.4 µM (inactive)
- GI50 (K562): 86.9 µM (inactive)
- GI50 (KM12): 49.1 µM (inactive)
- GI50 (LXFL 529): 32.4 µM (inactive)
- GI50 (M14): 47.1 µM (inactive)
- GI50 (M19-MEL): > 100 µM (inactive)
- GI50 (Malme-3M): 55.8 µM (inactive)
- GI50 (NCI-H226): 57.1 µM (inactive)
- GI50 (NCI-H23): > 100 µM (inactive)
- GI50 (NCI-H460): 33.7 µM (inactive)
- GI50 (NCI-H522): 25.1 µM (inactive)
- GI50 (OVCAR-3): 34.9 µM (inactive)
- GI50 (OVCAR-4): 34 µM (inactive)
- GI50 (OVCAR-5): 47.1 µM (inactive)
- GI50 (OVCAR-8): 71.9 µM (inactive)
- GI50 (RXF 393): > 100 µM (inactive)
- GI50 (RXF 631): > 100 µM (inactive)
- GI50 (SF-268): 17.2 µM (inactive)
- GI50 (SF-295): > 100 µM (inactive)
- GI50 (SF-539): > 100 µM (inactive)
- GI50 (SK-MEL-28): > 100 µM (inactive)
- GI50 (SK-MEL-2): 76.7 µM (inactive)
- GI50 (SK-OV-3): 37.8 µM (inactive)
- GI50 (SN12C): 59.8 µM (inactive)
- GI50 (SNB-19): > 100 µM (inactive)
- GI50 (SNB-75): 20 µM (inactive)
- GI50 (SNB-78): > 100 µM (inactive)
- GI50 (SR): 67.3 µM (inactive)
- GI50 (SW-620): > 100 µM (inactive)
- GI50 (TK-10): > 100 µM (inactive)
- GI50 (U-251): > 100 µM (inactive)
- GI50 (UACC-257): > 100 µM (inactive)
- GI50 (UACC-62): 15.8 µM (inactive)
- GI50 (UO-31): 55.1 µM (inactive)
- GI50 (XF498): 98.9 µM (inactive)

SMILES: Cn1ncc2c(=O)[nH]c(-c3ccccc3)nc21
- GI50 (A549): > 100 µM (inactive)
- GI50 (ACHN): > 100 µM (inactive)
- GI50 (CAKI-1): > 100 µM (inactive)
- GI50 (CCRF-CEM): > 100 µM (inactive)
- GI50 (COLO 205): > 100 µM (inactive)
- GI50 (DLD-1): > 100 µM (inactive)
- GI50 (DMS-114): > 100 µM (inactive)
- GI50 (DMS-273): > 100 µM (inactive)
- GI50 (EKVX): > 100 µM (inactive)
- GI50 (HCC 2998): > 100 µM (inactive)
- GI50 (HCT-15): > 100 µM
- GI50 (HL-60): > 100 µM (inactive)
- GI50 (HOP-18): < 0.01 µM (active)
- GI50 (HT-29): > 100 µM (inactive)
- GI50 (IGROV-1): > 100 µM (inactive)
- GI50 (K562): > 100 µM (inactive)
- GI50 (KM-20L2): > 100 µM (inactive)
- GI50 (KM12): > 100 µM (inactive)
- GI50 (LOX IMVI): > 100 µM (inactive)
- GI50 (M14): > 100 µM (inactive)
- GI50 (MOLT-4): > 100 µM (inactive)
- GI50 (Malme-3M): > 100 µM (inactive)
- GI50 (NCI-H23): > 100 µM (inactive)
- GI50 (NCI-H522): > 100 µM (inactive)
- GI50 (OVCAR-4): > 100 µM (inactive)
- GI50 (OVCAR-5): > 100 µM (inactive)
- GI50 (OVCAR-8): > 100 µM (inactive)
- GI50 (RPMI-8226): > 100 µM (inactive)
- GI50 (RXF 393): > 100 µM (inactive)
- GI50 (RXF 631): > 100 µM (inactive)
- GI50 (SF-268): > 100 µM (inactive)
- GI50 (SF-295): > 100 µM (inactive)
- GI50 (SF-539): > 100 µM (inactive)
- GI50 (SK-MEL-28): > 100 µM (inactive)
- GI50 (SK-MEL-2): > 100 µM (inactive)
- GI50 (SK-MEL-5): > 100 µM (inactive)
- GI50 (SK-OV-3): > 100 µM (inactive)
- GI50 (SN12C): > 100 µM (inactive)
- GI50 (SNB-19): > 100 µM (inactive)
- GI50 (SNB-75): > 100 µM (inactive)
- GI50 (SNB-78): > 100 µM (inactive)
- GI50 (SW-620): > 100 µM (inactive)
- GI50 (TK-10): > 100 µM (inactive)
- GI50 (U-251): > 100 µM (inactive)
- GI50 (UACC-257): > 100 µM (inactive)
- GI50 (UACC-62): > 100 µM (inactive)
- GI50 (UO-31): > 100 µM (inactive)
- GI50 (XF498): > 100 µM (inactive)
